Patent publication US11000033B2, “Ketone or oxime compound, and herbicide” (NISSAN CHEMICAL CORPORATION, priority 2014, dated 2021)

Tests used:
Format in all cases: in vivo
[1] = tested on: Echinochloa crus-galli var. crus-galli; experiment: Test Example 3: herbicidal effect by foliage application, Wagner pot (symbol H); conditions: application herbicide amount 320 g/ha
Procedure, shortened: (§1)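 Scoring took place 3 weeks after application, using fixed criteria. Plants had been raised from seed for 14 days at 25 to 30 °C in submerged alluvial soil before a diluted emulsion of the test compound was sprayed uniformly on the leaves.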

Digitaria ciliaris = experiment: Test Example 5: herbicidal effect by foliage application, plastic box (symbol F); conditions: 320 g/ha, 3 weeks after application
Procedure, shortened: (§2)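 Greenhouse foliar test: seedlings at 14 days, grown 25° C. to 30° C. in sterilized diluvial soil; compound applied as an aqueous dilution of an emulsion; response read 3 weeks after spraying.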

Apera spica-venti [2] = experiment: Test Example 4: herbicidal effect by soil treatment (symbol L); conditions: application herbicide amount 320 g/ha
Procedure, shortened: (§3)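 Seeds were sown in sterilized diluvial soil, covered with about 1.5 cm of soil, and the soil surface was sprayed with a water-diluted emulsion of the compound at a predetermined rate. Plants grew in a greenhouse at 25° C. to 30° C.; effects were scored visually 3 weeks after application.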

Abutilon theophrasti = experiment: Test Example 5: herbicidal effect by foliage application, plastic box (symbol M); conditions: 320 g/ha, 3 weeks after application
Procedure, shortened: as §2

rapeseed [3] = experiment: Test Example 5: effect on crop by foliage application, plastic box (symbol g); conditions: 320 g/ha, 3 weeks after application
Procedure, shortened: (§4)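 Greenhouse culture at 25° C. to 30° C. followed spot-like sowing into sterilized diluvial soil, with seed covered by roughly 1.5 cm of soil.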

beet = experiment: Test Example 5: effect on crop by foliage application, plastic box (symbol f); conditions: 320 g/ha, 3 weeks after application
Procedure, shortened: as §4

Galium spurium [4] = experiment: Test Example 4: herbicidal effect by soil treatment (symbol Q); conditions: application herbicide amount 320 g/ha
Procedure, shortened: as §3

Cyperus difformis = experiment: Test Example 3: herbicidal effect by foliage application, Wagner pot (symbol E); conditions: application herbicide amount 320 g/ha
Procedure, shortened: as §1

rapeseed [5] = experiment: Test Example 4: effect on crop by soil treatment (symbol g); conditions: application herbicide amount 320 g/ha
Procedure, shortened: (§5)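 Plants are raised in a greenhouse (25° C. to 30° C.) from spot-sown seed, which sits under about 1.5 cm of sterilized diluvial soil in a box shared with weed species.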

Scirpus juncoides = experiment: Test Example 1: herbicidal activity, application before weed generation in submerged conditions (symbol B); conditions: application herbicide amount 320 g/ha
Procedure, shortened: (§6)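 Greenhouse growth at 25–30 °C lasted 3 weeks after treatment, when each weed was graded 0–5 by herbicidal ratio. Treatment was a diluted emulsion applied to the water surface of 4 cm-submerged alluvial soil on the sowing day.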

Galium spurium [6] = experiment: Test Example 5: herbicidal effect by foliage application, plastic box (symbol Q); conditions: 320 g/ha, 3 weeks after application
Procedure, shortened: as §2

Amaranthus retroflexus = experiment: Test Example 5: herbicidal effect by foliage application, plastic box (symbol N); conditions: 320 g/ha, 3 weeks after application
Procedure, shortened: as §2

Alopecurus myosuroides [7] = experiment: Test Example 4: herbicidal effect by soil treatment (symbol J); conditions: application herbicide amount 320 g/ha
Procedure, shortened: as §3

[8] = tested on: Echinochloa oryzacola Vasing.; experiment: Test Example 1: herbicidal activity, application before weed generation in submerged conditions (symbol A); conditions: application herbicide amount 320 g/ha
Procedure, shortened: as §6

Apera spica-venti [9] = experiment: Test Example 5: herbicidal effect by foliage application, plastic box (symbol L); conditions: 320 g/ha, 3 weeks after application
Procedure, shortened: as §2

Stellaria media = experiment: Test Example 5: herbicidal effect by foliage application, plastic box (symbol P); conditions: 320 g/ha, 3 weeks after application
Procedure, shortened: as §2

Setaria viridis = experiment: Test Example 4: herbicidal effect by soil treatment (symbol G); conditions: application herbicide amount 320 g/ha
Procedure, shortened: as §3

wheat = experiment: Test Example 4: effect on crop by soil treatment (symbol e); conditions: application herbicide amount 320 g/ha
Procedure, shortened: as §5

Alopecurus myosuroides [10] = experiment: Test Example 5: herbicidal effect by foliage application, plastic box (symbol J); conditions: 320 g/ha, 3 weeks after application
Procedure, shortened: as §2

Structure (SMILES) | herbicidal effect on H (Echinochloa crus-galli var. crus-galli), grade 0-5 [1] | F: Digitaria ciliaris, herbicidal effect (criteria of Test Example 1) (Digitaria ciliaris) | M: Abutilon theophrasti, herbicidal effect (criteria of Test Example 1) (Abutilon theophrasti) | g: rapeseed, effect on crop (criteria of Test Example 1) (rapeseed [3]) | f: beet, effect on crop (criteria of Test Example 1) (beet) | herbicidal effect on E, grade 0-5 (Cyperus difformis) | Herbicidal effect grade, B: Scirpus juncoides (Scirpus juncoides) | Q: Galium spurium, herbicidal effect (criteria of Test Example 1) (Galium spurium [6]) | N: Amaranthus retroflexus, herbicidal effect (criteria of Test Example 1) (Amaranthus retroflexus) | Herbicidal effect grade, A: Echinochloa oryzacola Vasing. [8] | L: Apera spica-venti, herbicidal effect (criteria of Test Example 1) (Apera spica-venti [9]) | P: Stellaria media, herbicidal effect (criteria of Test Example 1) (Stellaria media) | J: Alopecurus myosuroides, herbicidal effect (criteria of Test Example 1) (Alopecurus myosuroides [10]) | F: Digitaria ciliaris, herbicidal effect grade (Digitaria ciliaris) | L (Apera spica-venti) herbicidal effect grade (Apera spica-venti [2]) | M: Abutilon theophrasti, herbicidal effect grade (Abutilon theophrasti) | g: rapeseed, effect on crop grade (rapeseed [3]) | f: beet, effect on crop grade (beet) | Q (Galium spurium) herbicidal effect grade (Galium spurium [4]) | g (rapeseed) effect on crop grade (rapeseed [5]) | other results
CON=C(C)CC1CC(O)=C(c2c(C)cc(-c3ccc(Cl)cc3)cc2OC)C1=O (stereo not shown) [6-077, 2-(4′-chloro-3-methoxy-5-methyl-[1,1′-biphenyl]-4-yl)-3-hydroxy-5-{2-(methoxyimino)propyl}cyclopent-2-enone] | 5 (Herbicidal ratio of 90% or more (almost completely withered)) | 5 (Herbicidal ratio of 90% or more (almost completely withered)) | 5 (Herbicidal ratio of 90% or more (almost completely withered)) | 5 (Herbicidal ratio of 90% or more (almost completely withered)) | 4 (Herbicidal ratio of 70% or higher and lower than 90%) | 5 (Herbicidal ratio of 90% or more (almost completely withered)) | 3 (Herbicidal ratio of 40% or higher and lower than 70%) | 4 (Herbicidal ratio of 70% or higher and lower than 90%) | 1 (Herbicidal ratio of 5% or higher and lower than 20%) | 5 (Herbicidal ratio of 90% or more (almost completely withered)) | 5 (Herbicidal ratio of 90% or more (almost completely withered)) | 4 (Herbicidal ratio of 70% or higher and lower than 90%) | 5 (Herbicidal ratio of 90% or more (almost completely withered)) |  |  |  |  |  |  |  | L: Apera spica-venti, herbicidal effect grade (Apera spica-venti [2]): 5 (Herbicidal ratio of 90% or more (almost completely withered)); Q: Galium spurium, herbicidal effect grade (Galium spurium [4]): 4 (Herbicidal ratio of 70% or higher and lower than 90%); g: rapeseed, effect on crop grade (rapeseed [5]): 4 (Herbicidal ratio of 70% or higher and lower than 90%); J: Alopecurus myosuroides, herbicidal effect grade (Alopecurus myosuroides [7]): 5 (Herbicidal ratio of 90% or more (almost completely withered)); G: Setaria viridis, herbicidal effect grade (Setaria viridis): 5 (Herbicidal ratio of 90% or more (almost completely withered)); e: wheat, effect on crop grade (wheat): 0 (Herbicidal ratio of 5% or lower (almost no effect))
CC#Cc1cc(C)c(C2=C(O)CC(CC(C)=O)C2=O)c(C)c1 (stereo not shown) [7-010] | 5 (Herbicidal ratio of 90% or more (almost completely withered)) | 5 (Herbicidal ratio of 90% or more (almost completely withered)) | 3 (Herbicidal ratio of 40% or higher and lower than 70%) | 4 (Herbicidal ratio of 70% or higher and lower than 90%) | 0 (Herbicidal ratio of 5% or lower (almost no effect)) | 5 (Herbicidal ratio of 90% or more (almost completely withered)) | 5 (Herbicidal ratio of 90% or more (almost completely withered)) | 0 (Herbicidal ratio of 5% or lower (almost no effect)) | 1 (Herbicidal ratio of 5% or higher and lower than 20%) | 5 (Herbicidal ratio of 90% or more (almost completely withered)) | 5 (Herbicidal ratio of 90% or more (almost completely withered)) | 0 (Herbicidal ratio of 5% or lower (almost no effect)) | 5 (Herbicidal ratio of 90% or more (almost completely withered)) |  |  |  |  |  |  |  | Herbicidal effect grade, L: Apera spica-venti (Apera spica-venti [2]): 5 (Herbicidal ratio of 90% or more (almost completely withered)); Herbicidal effect grade, Q: Galium spurium (Galium spurium [4]): 0 (Herbicidal ratio of 5% or lower (almost no effect)); Effect on crop grade, g: rapeseed (rapeseed [5]): 3 (Herbicidal ratio of 40% or higher and lower than 70%); Herbicidal effect grade, J: Alopecurus myosuroides (Alopecurus myosuroides [7]): 5 (Herbicidal ratio of 90% or more (almost completely withered)); Herbicidal effect grade, G: Setaria viridis (Setaria viridis): 5 (Herbicidal ratio of 90% or more (almost completely withered)); Effect on crop grade, e: wheat (wheat): 4 (Herbicidal ratio of 70% or higher and lower than 90%)
CON=C(C)C(C(C)=NOC)C1CC(O)=C(c2c(C)cc(C)cc2C)C1=O (stereo not shown) [1-021] | 2 (Herbicidal ratio of 20% or higher and lower than 40%) |  |  |  |  | 0 (Herbicidal ratio of 5% or lower (almost no effect)) | 0 (Herbicidal ratio of 5% or lower (almost no effect)) |  |  | 0 (Herbicidal ratio of 5% or lower (almost no effect)) |  |  |  | 1 (Herbicidal ratio of 5% or higher and lower than 20%) | 0 (Herbicidal ratio of 5% or lower (almost no effect)) | 0 (Herbicidal ratio of 5% or lower (almost no effect)) | 2 (Herbicidal ratio of 20% or higher and lower than 40%) | 0 (Herbicidal ratio of 5% or lower (almost no effect)) | 0 (Herbicidal ratio of 5% or lower (almost no effect)) | 0 (Herbicidal ratio of 5% or lower (almost no effect)) | Q: Galium spurium, herbicidal effect grade (Galium spurium [6]): 0 (Herbicidal ratio of 5% or lower (almost no effect)); N: Amaranthus retroflexus, herbicidal effect grade (Amaranthus retroflexus): 0 (Herbicidal ratio of 5% or lower (almost no effect)); J (Alopecurus myosuroides) herbicidal effect grade (Alopecurus myosuroides [7]): 0 (Herbicidal ratio of 5% or lower (almost no effect)); L: Apera spica-venti, herbicidal effect grade (Apera spica-venti [9]): 4 (Herbicidal ratio of 70% or higher and lower than 90%); G (Setaria viridis) herbicidal effect grade (Setaria viridis): 0 (Herbicidal ratio of 5% or lower (almost no effect)); e (wheat) effect on crop grade (wheat): 0 (Herbicidal ratio of 5% or lower (almost no effect)); J: Alopecurus myosuroides, herbicidal effect grade (Alopecurus myosuroides [10]): 3 (Herbicidal ratio of 40% or higher and lower than 70%)
CC(CC1CC(O)=C(c2c(C)cc(C)cc2C)C1=O)=NOCc1ccccc1 (stereo not shown) [1-020] | 5 (Herbicidal ratio of 90% or more (almost completely withered)) |  |  |  |  | 2 (Herbicidal ratio of 20% or higher and lower than 40%) | 5 (Herbicidal ratio of 90% or more (almost completely withered)) |  |  | 5 (Herbicidal ratio of 90% or more (almost completely withered)) |  |  |  | 5 (Herbicidal ratio of 90% or more (almost completely withered)) | 5 (Herbicidal ratio of 90% or more (almost completely withered)) | 3 (Herbicidal ratio of 40% or higher and lower than 70%) | 4 (Herbicidal ratio of 70% or higher and lower than 90%) | 3 (Herbicidal ratio of 40% or higher and lower than 70%) | 0 (Herbicidal ratio of 5% or lower (almost no effect)) | 4 (Herbicidal ratio of 70% or higher and lower than 90%) | Q: Galium spurium, herbicidal effect grade (Galium spurium [6]): 4 (Herbicidal ratio of 70% or higher and lower than 90%); J (Alopecurus myosuroides) herbicidal effect grade (Alopecurus myosuroides [7]): 5 (Herbicidal ratio of 90% or more (almost completely withered)); L: Apera spica-venti, herbicidal effect grade (Apera spica-venti [9]): 5 (Herbicidal ratio of 90% or more (almost completely withered)); G (Setaria viridis) herbicidal effect grade (Setaria viridis): 5 (Herbicidal ratio of 90% or more (almost completely withered)); e (wheat) effect on crop grade (wheat): 2 (Herbicidal ratio of 20% or higher and lower than 40%); J: Alopecurus myosuroides, herbicidal effect grade (Alopecurus myosuroides [10]): 5 (Herbicidal ratio of 90% or more (almost completely withered))
